From patent US5916873A, “Teicoplanin derivatives” (Eli Lilly and Company, priority 1998, dated 1999)
Values after ≈ are worked out from the molar mass of the structure shown.

How the values were obtained:
[1] = tested on: vancomycin-sensitive enterococci; assay: mean geometric MIC, vancomycin-sensitive enterococci, broth micro-dilution; format: cell-based, Enterococcus faecium and Enterococcus faecalis; conditions: Table 3, representative vancomycin-sensitive enterococci
Procedure: (§1) The antibacterial efficacy of the present teicoplanin derivatives is illustrated by the following tables. The minimal inhibitory concentrations (MICs) were determined using a standard broth micro-dilution assay.

E. f. 180 = assay: standard broth micro-dilution MIC; format: cell-based; conditions: Table 2B; strain 180
Procedure: as §1

S. aureus 446 = assay: standard broth micro-dilution MIC; format: cell-based; conditions: Table 2A; strain 446
Procedure: as §1

EC14 = assay: standard broth micro-dilution MIC; format: cell-based; conditions: Table 2C; strain EC14
Procedure: as §1

E. f. 2041 = assay: standard broth micro-dilution MIC; format: cell-based; conditions: Table 2B; strain 2041
Procedure: as §1

H. influ RD = assay: standard broth micro-dilution MIC; format: cell-based; conditions: Table 2C; strain RD
Procedure: as §1

S. h. 415 = assay: standard broth micro-dilution MIC; format: cell-based; conditions: Table 2B; strain 415
Procedure: as §1

S. aureus 489 = assay: standard broth micro-dilution MIC; format: cell-based; conditions: Table 2A; strain 489
Procedure: as §1

S. aureus X778 = assay: standard broth micro-dilution MIC; format: cell-based; conditions: Table 2A; strain X778
Procedure: as §1

S. epi 270 = assay: standard broth micro-dilution MIC; format: cell-based; conditions: Table 2B; strain 270
Procedure: as §1

St. pneumo P1 = assay: standard broth micro-dilution MIC; format: cell-based; conditions: Table 2C; strain P1
Procedure: as §1

E. gall. 245 = assay: standard broth micro-dilution MIC; format: cell-based; conditions: Table 2C; strain 245
Procedure: as §1

S. aureus 491 = assay: standard broth micro-dilution MIC; format: cell-based; conditions: Table 2A; strain 491
Procedure: as §1

S. aureus S13E = assay: standard broth micro-dilution MIC; format: cell-based; conditions: Table 2A; strain S13E
Procedure: as §1

M. cat M12 = assay: standard broth micro-dilution MIC; format: cell-based; conditions: Table 2C; strain M12
Procedure: as §1

S. aureus 447 = assay: standard broth micro-dilution MIC; format: cell-based; conditions: Table 2A; strain 447
Procedure: as §1

S. aureus SA1199 = assay: standard broth micro-dilution MIC; format: cell-based; conditions: Table 2A; strain SA1199
Procedure: as §1

S. h. 105 = assay: standard broth micro-dilution MIC; format: cell-based; conditions: Table 2B; strain 105
Procedure: as §1

S. aureus X400 = assay: standard broth micro-dilution MIC; format: cell-based; conditions: Table 2A; strain X400
Procedure: as §1

St. pyro C203 = assay: standard broth micro-dilution MIC; format: cell-based; conditions: Table 2C; strain C203
Procedure: as §1

E. f. 276 = assay: standard broth micro-dilution MIC; format: cell-based; conditions: Table 2C; strain 276
Procedure: as §1

S. aureus SA1199B = assay: standard broth micro-dilution MIC; format: cell-based; conditions: Table 2B; strain SA1199B
Procedure: as §1

E. f. 180-1 = assay: standard broth micro-dilution MIC; format: cell-based; conditions: Table 2B; strain 180-1
Procedure: as §1

S. aureus SA1199R = assay: standard broth micro-dilution MIC; format: cell-based; conditions: Table 2B; strain SA1199R
Procedure: as §1

[2] = tested on: vancomycin-resistant enterococci; assay: mean geometric MIC, vancomycin-resistant enterococci, broth micro-dilution; format: cell-based, Enterococcus faecium and Enterococcus faecalis; conditions: Table 3, representative vancomycin-resistant enterococci
Procedure: as §1

H. influR D/BL+ = format: cell-based, H. influ; conditions: Table 2C; strain RD/BL+
Procedure: as §1

For `CCCCc1ccc(CNC2C(=O)NC3Cc4ccc(c(Cl)c4)Oc4cc5cc(c4OC4OC(CO)C(O)C(O)C4NCc4ccc(CCCC)cc4)Oc4ccc(cc4Cl)C(OC4OC(CO)C(O)C(O)C4NC(C)=O)C4NC(=O)C(NC(=O)C5NC(=O)C(NC3=O)c3cc(O)cc(c3)Oc3cc2ccc3O)c2ccc(O)c(c2)-c2c(OC3OC(CO)C(O)C(O)C3O)cc(O)cc2C(C(=O)O)NC4=O)cc1` (stereo not shown) [Example 5], the “Sens. MIC” value [1] was 0.25 µg/mL, the “MIC E. f. 180” value (E. f. 180) was “≤ .06 µg/mL” and the “MIC S. aureus 446” value (S. aureus 446) was 0.5 µg/mL (≈ 0.248 µM). For the same compound, the “MIC EC14” value (EC14) was greater than 64 µg/mL, the “MIC E. f. 2041” value (E. f. 2041) was “≤ .06 µg/mL” and the “MIC H. influ RD” value (H. influ RD) was 64 µg/mL (≈ 31.7 µM). For the same compound, the “MIC S. h. 415” value (S. h. 415) was 4 µg/mL (≈ 1.98 µM), the “MIC S. aureus 489” value (S. aureus 489) was 0.5 µg/mL (≈ 0.248 µM) and the “MIC S. aureus X778” value (S. aureus X778) was 0.25 µg/mL (≈ 0.124 µM). For the same compound, the “MIC S. epi 270” value (S. epi 270) was 0.25 µg/mL (≈ 0.124 µM), the “MIC St. pneumo P1” value (St. pneumo P1) was “≤ .06 µg/mL” and the “MIC E. gall. 245” value (E. gall. 245) was “≤ .06 µg/mL”. For the same compound, the “MIC S. aureus 491” value (S. aureus 491) was 0.25 µg/mL (≈ 0.124 µM), the “MIC S. aureus S13E” value (S. aureus S13E) was 1 µg/mL (≈ 0.496 µM) and the “MIC M. cat M12” value (M. cat M12) was “≤ .06 µg/mL”. For the same compound, the “MIC S. aureus 447” value (S. aureus 447) was 0.5 µg/mL (≈ 0.248 µM), the “MIC S. aureus SA1199” value (S. aureus SA1199) was 0.25 µg/mL (≈ 0.124 µM) and the “MIC S. h. 105” value (S. h. 105) was 0.125 µg/mL (≈ 0.0619 µM). For the same compound, the “MIC S. aureus X400” value (S. aureus X400) was 0.25 µg/mL (≈ 0.124 µM), the “MIC St. pyro C203” value (St. pyro C203) was “≤ .06 µg/mL” and the “MIC E. f. 276” value (E. f. 276) was “≤ .06 µg/mL”. For the same compound, the “MIC S. aureus SA1199B” value (S. aureus SA1199B) was 0.25 µg/mL (≈ 0.124 µM), the “MIC E. f. 180-1” value (E. f. 180-1) was “≤ .06 µg/mL” and the “MIC S. aureus SA1199R” value (S. aureus SA1199R) was “≤ .06 µg/mL”. The “Resist. MIC” value [2] was 0.84 µg/mL and the “MIC H. influR D/BL+” value (H. influR D/BL+) was 1 µg/mL (≈ 0.496 µM).
`CC(=O)NC1C(OC2c3ccc(c(Cl)c3)Oc3cc4cc(c3OC3OC(CO)C(O)C(O)C3NCc3ccc5ccccc5c3)Oc3ccc(cc3Cl)CC3NC(=O)C(NCc5ccc6ccccc6c5)c5ccc(O)c(c5)Oc5cc(O)cc(c5)C(NC3=O)C(=O)NC4C(=O)NC3C(=O)NC2C(=O)NC(C(=O)O)c2cc(O)cc(OC4OC(CO)C(O)C(O)C4O)c2-c2cc3ccc2O)OC(CO)C(O)C1O` (stereo not shown) [Example 6] was tested, and the “Sens. MIC” value [1] was 0.11 µg/mL, the “MIC E. f. 180” value (E. f. 180) was 0.25 µg/mL (≈ 0.125 µM) and the “MIC S. aureus 446” value (S. aureus 446) was “≤ .06 µg/mL”. The “MIC EC14” value (EC14) was greater than 64 µg/mL, the “MIC E. f. 2041” value (E. f. 2041) was “≤ .06 µg/mL” and the “MIC H. influ RD” value (H. influ RD) was 16 µg/mL (≈ 7.98 µM). The “MIC S. h. 415” value (S. h. 415) was 4 µg/mL (≈ 1.99 µM), the “MIC S. aureus 489” value (S. aureus 489) was “≤ .06 µg/mL” and the “MIC S. aureus X778” value (S. aureus X778) was “≤ .06 µg/mL”. The “MIC S. epi 270” value (S. epi 270) was “≤ .06 µg/mL”, the “MIC St. pneumo P1” value (St. pneumo P1) was “≤ .06 µg/mL” and the “MIC E. gall. 245” value (E. gall. 245) was “≤ .06 µg/mL”. For the same compound, the “MIC S. aureus 491” value (S. aureus 491) was “≤ .06 µg/mL”, the “MIC S. aureus S13E” value (S. aureus S13E) was “≤ .06 µg/mL” and the “MIC M. cat M12” value (M. cat M12) was “≤ .06 µg/mL”. For the same compound, the “MIC S. aureus 447” value (S. aureus 447) was “≤ .06 µg/mL”, the “MIC S. aureus SA1199” value (S. aureus SA1199) was “≤ .06 µg/mL” and the “MIC S. h. 105” value (S. h. 105) was “≤ .06 µg/mL”. For the same compound, the “MIC S. aureus X400” value (S. aureus X400) was “≤ .06 µg/mL”, the “MIC St. pyro C203” value (St. pyro C203) was “≤ .06 µg/mL” and the “MIC E. f. 276” value (E. f. 276) was “≤ .06 µg/mL”. The “MIC S. aureus SA1199B” value (S. aureus SA1199B) was “≤ .06 µg/mL”, the “MIC E. f. 180-1” value (E. f. 180-1) was “≤ .06 µg/mL” and the “MIC S. aureus SA1199R” value (S. aureus SA1199R) was “≤ .06 µg/mL”. For the same compound, the “Resist. MIC” value [2] was 3.4 µg/mL and the “MIC H. influR D/BL+” value (H. influR D/BL+) was 1 µg/mL (≈ 0.499 µM).
